Experimental data: US5888998A, “2-oxo-1-azetidine sulfonic acid derivatives as potent β-lactamase inhibitors” (Synphar Laboratories, Inc., priority 1997, dated 1999)
Counter-ions that a name gives are not always drawn.

Assays:
cephalosporinase = target: T1, cephalosporinase (Pseudomonas aeruginosa, UniProt P24735); test: β-lactamase inhibitory activity, spectrophotometric rate assay with nitrocefin as substrate; format: biochemical, P. aeruginosa 46012
T1 construct: nitrocefin as substrate; purification not described
T1 sequence (P24735 27-397): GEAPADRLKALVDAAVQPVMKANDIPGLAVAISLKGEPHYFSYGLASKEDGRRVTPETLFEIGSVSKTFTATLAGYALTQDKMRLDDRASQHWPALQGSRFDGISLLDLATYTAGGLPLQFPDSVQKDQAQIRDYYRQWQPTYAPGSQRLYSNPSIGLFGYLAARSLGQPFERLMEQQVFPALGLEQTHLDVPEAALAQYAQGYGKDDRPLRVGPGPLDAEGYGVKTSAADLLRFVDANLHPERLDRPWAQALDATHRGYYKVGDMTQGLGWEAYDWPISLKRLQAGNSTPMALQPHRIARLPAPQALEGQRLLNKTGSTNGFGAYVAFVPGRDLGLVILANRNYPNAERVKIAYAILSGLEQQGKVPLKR
Source text: As already said, the oxyimino fragment i.e., =N--OR2 in the formula (I) in its `anti` orientation provides excellent synergy with a β-lactam antibiotic against class C β-lactamase (cephalosporinase) producing microorganisms, P. aeruginosa, in particular. Thus this invention includes only those compounds having the formula (I) in which the oxyimino group (=N--OR2) is specifically in the `anti` orientation as shown in (I). Furthermore, the inhibitory activity against the isolated β-lactamase (e.g., cephalosporinase from P. aeruginosa 46012) and the synergy with a β-lactam antibiotic is greatly influenced by the nature of the heterocyclic ring represented by R1 and the nature of the substituent in the oxime fragment represented by R2.
The inhibitory activities of present compounds (β-lactamase inhibitors) against cephalosporinase was measured by spectrophotometric rate assay using […] and using nitrocefin as a substrate (J. Antimicrob. Chemother., vol. 28, pp 775-776, 1991).

β-lactamase = settings: cited from earlier work
E. cloacae 40054 = test: MIC of ceftazidime, microbroth dilution; format: cell-based; settings: Enterobacter cloacae, 40054, 18 h, read-out: MIC of ceftazidime alone
Method: (§1) After incubation in Mueller-Hinton Broth (Difco) at 37° C. for 18 h, the bacterial suspension was diluted and about 10^5 CFU/ml was applied to the drug-containing Mueller-Hinton Broth in each well of 96 well plate. The MICs were recorded after 18 h of incubation at 37° C. on the lowest combinations of drug that inhibited visible growth of bacteria.

E. cloacae MNH-2 = test: MIC of ceftazidime, microbroth dilution; format: cell-based; settings: Enterobacter cloacae, MNH2, 18 h, read-out: MIC of ceftazidime alone
Method: as §1

E. cloacae P99 = test: microbe, parasite or virus in culture; format: cell-based; settings: Enterobacter cloacae, P99, 18 h, read-out: MIC of ceftazidime alone
Method: as §1

E. aerogenes 41006 = test: MIC of ceftazidime, microbroth dilution; format: cell-based; settings: Klebsiella aerogenes, 41006, 18 h, read-out: MIC of ceftazidime alone
Method: (§2) […]. After incubation in Mueller-Hinton Broth (Difco) at 37° C. for 18 h, the bacterial suspension was diluted and about 10^5 CFU/ml was applied to the drug-containing Mueller-Hinton Broth in each well of 96 well plate. The MICs were recorded after 18 h of incubation at 37° C. on the lowest combinations of drug that inhibited visible growth of bacteria.

E. aerogenes S-95 = test: MIC of ceftazidime, microbroth dilution; format: cell-based; settings: Klebsiella aerogenes, S95, 18 h, read-out: MIC of ceftazidime alone
Method: as §2

M. morganii 36014 = test: MIC of ceftazidime, microbroth dilution; format: cell-based; settings: Morganella morganii, 36014, 18 h, read-out: MIC of ceftazidime alone
Method: as §2

M. morganii 36030 = test: MIC of ceftazidime, microbroth dilution; format: cell-based; settings: Morganella morganii, 36030, 18 h, read-out: MIC of ceftazidime alone
Method: as §2

P. aeruginosa 46012 (R) = test: MIC of ceftazidime, microbroth dilution; format: cell-based; settings: Pseudomonas aeruginosa, 18 h, read-out: MIC of ceftazidime alone
Method: as §2

P. aeruginosa 46017 = test: MIC of ceftazidime, microbroth dilution; format: cell-based; settings: Pseudomonas aeruginosa, 46017, 18 h, read-out: MIC of ceftazidime alone
Method: as §2

[1] = system: P. aeruginosa 46220 DR-2-1; test: MIC of ceftazidime, microbroth dilution; format: cell-based; settings: Pseudomonas aeruginosa, 46220DR21, 18 h, read-out: MIC of ceftazidime alone
Method: as §2

P. aeruginosa AU-10 = test: MIC of ceftazidime, microbroth dilution; format: cell-based; settings: Pseudomonas aeruginosa, AU10, 18 h, read-out: MIC of ceftazidime alone
Method: as §2

P. aeruginosa AU-1 = test: MIC of ceftazidime, microbroth dilution; format: cell-based; settings: Pseudomonas aeruginosa, AU1, 18 h, read-out: MIC of ceftazidime alone
Method: as §2

P. aeruginosa AU-5 = test: MIC of ceftazidime, microbroth dilution; format: cell-based; settings: Pseudomonas aeruginosa, AU5, 18 h, read-out: MIC of ceftazidime alone
Method: as §2

P. aeruginosa AU-7 = test: MIC of ceftazidime, microbroth dilution; format: cell-based; settings: Pseudomonas aeruginosa, AU7, 18 h, read-out: MIC of ceftazidime alone
Method: as §2

P. aeruginosa AU-8 = test: MIC of ceftazidime, microbroth dilution; format: cell-based; settings: Pseudomonas aeruginosa, AU8, 18 h, read-out: MIC of ceftazidime alone
Method: as §2

P. aeruginosa CT-122 = test: MIC of ceftazidime, microbroth dilution; format: cell-based; settings: Pseudomonas aeruginosa, CT122, 18 h, read-out: MIC of ceftazidime alone
Method: as §2

P. aeruginosa CT-137 = test: MIC of ceftazidime, microbroth dilution; format: cell-based; settings: Pseudomonas aeruginosa, CT137, 18 h, read-out: MIC of ceftazidime alone
Method: as §2

P. aeruginosa CT-144 = test: MIC of ceftazidime, microbroth dilution; format: cell-based; settings: Pseudomonas aeruginosa, CT144, 18 h, read-out: MIC of ceftazidime alone
Method: as §2

P. aeruginosa L46004 = test: MIC of ceftazidime, microbroth dilution; format: cell-based; settings: Pseudomonas aeruginosa, L46004, 18 h, read-out: MIC of ceftazidime alone
Method: as §2

P. aeruginosa M 1405 = test: MIC of ceftazidime, microbroth dilution; format: cell-based; settings: Pseudomonas aeruginosa, M1405, 18 h, read-out: MIC of ceftazidime alone
Method: as §2

P. aeruginosa M 2297 = test: MIC of ceftazidime, microbroth dilution; format: cell-based; settings: Pseudomonas aeruginosa, M2297, 18 h, read-out: MIC of ceftazidime alone
Method: as §2

[2] = system: P. aeruginosa PAO 303 carb-4; test: MIC of ceftazidime, microbroth dilution; format: cell-based; settings: Pseudomonas aeruginosa, PAO303CARB4, 18 h, read-out: MIC of ceftazidime alone
Method: as §2

[3] = system: P. aeruginosa sp 2439 Wt.; test: MIC of ceftazidime, microbroth dilution; format: cell-based; settings: Pseudomonas aeruginosa, SP2439WT., 18 h, read-out: MIC of ceftazidime alone
Method: as §2

P. fluorescens sp 5953 = test: MIC of ceftazidime, microbroth dilution; format: cell-based; settings: Pseudomonas fluorescens, SP5953, 18 h, read-out: MIC of ceftazidime alone
Method: as §2

P. aeruginosa 46220 DR-2 = test: MIC of ceftazidime, microbroth dilution; format: cell-based; settings: Pseudomonas aeruginosa, 46220DR2, alone, 18 h, 37° C.
Method: as §1, with “The MICs of the antibiotics (ceftazidime) alone, the MICs of ceftazidime in combination with reference compounds particularly aztreonam (ref. compd. I) and the MICs of the β-lactamase inhibitors (10 μg/ml) of the present invention in combination with ceftazidime were determined with the same β-lactamase producing bacteria. After” for “After”

## C[C@H]1[C@H](NC(=O)/C(=N/OCc2cc(=O)c(O)cn2O)c2cccs2)C(=O)N1S(=O)(=O)O [Compound 1, (3S)-trans-3-[(E)-2-(2-thienyl)-2-{(1,5-dihydroxy-4-pyridon-2-ylmethoxy)imino}acetamido]-4-methyl-2-oxoazetidine-1-sulfonic acid]
cephalosporinase
  IC50: 60 nM

## C[C@H]1[C@H](NC(=O)/C(=N/OCc2cc(=O)c(O)cn2O)c2cccs2)C(=O)N1S(=O)(=O)O [Compound 2]
cephalosporinase
  IC50: 40 nM

## C[C@H]1[C@H](NC(=O)/C(=N/OCc2cc(=O)c(O)cn2O)c2cccs2)C(=O)N1S(=O)(=O)O [Compound 3]
cephalosporinase
  IC50: 10 nM

## CC(O/N=C(/C(=O)N[C@@H]1C(=O)N(S(=O)(=O)O)[C@H]1C)c1cccs1)c1cc(=O)c(O)cn1O (some centres unmarked) [Compound 4]
cephalosporinase
  IC50: 60 nM

## C=CCC(O/N=C(/C(=O)N[C@@H]1C(=O)N(S(=O)(=O)O)[C@H]1C)c1cccs1)c1cc(=O)c(O)cn1O (some centres unmarked) [Compound 5]
cephalosporinase
  IC50: 50 nM

## C[C@H]1[C@H](NC(=O)/C(=N/OC(c2ccc(F)cc2)c2cc(=O)c(O)cn2O)c2cccs2)C(=O)N1S(=O)(=O)O (some centres unmarked) [Compound 6]
cephalosporinase
  IC50: 100 nM

## C[C@H]1[C@H](NC(=O)/C(=N/OCCSCc2cc(=O)c(O)cn2O)c2cccs2)C(=O)N1S(=O)(=O)O [Compound 7]
cephalosporinase
  IC50: 60 nM

## C[C@H]1[C@H](NC(=O)/C(=N/OCCNC(=O)/C(=N\OCc2cc(=O)c(O)cn2O)c2cccs2)c2cccs2)C(=O)N1S(=O)(=O)O [Compound 9]
cephalosporinase
  IC50: 6 nM

## C[C@H]1[C@H](NC(=O)/C(=N/OCCNC(=O)/C(=N/OCc2cc(=O)c(O)cn2O)c2cccs2)c2cccs2)C(=O)N1S(=O)(=O)O [Compound 10]
cephalosporinase
  IC50: 1 nM

## C/C(=N/OCc1cc(=O)c(O)cn1O)C(=O)NCCO/N=C(/C(=O)N[C@@H]1C(=O)N(S(=O)(=O)O)[C@H]1C)c1cccs1 [Compound 11]
cephalosporinase
  IC50: 50 nM

## C[C@H]1[C@H](NC(=O)/C(=N/OCCNC(=O)/C(=N\OCc2cc(=O)c(O)cn2O)c2csc(N)n2)c2cccs2)C(=O)N1S(=O)(=O)O [Compound 12]
cephalosporinase
  IC50: 6 nM

## C[C@H]1[C@H](NC(=O)/C(=N/OCCNC(=O)c2cc(=O)c(O)c[nH]2)c2cccs2)C(=O)N1S(=O)(=O)O [Compound 13]
cephalosporinase
  IC50: 10 nM

## C[C@H]1[C@H](NC(=O)/C(=N/OCc2cc(=O)c(O)c[nH]2)c2cccs2)C(=O)N1S(=O)(=O)O [Compound 14, (3S)-trans-3-[(E)-2-(2-thienyl)-2{(5-hydroxy-4-pyridon-2-ylmethoxy)imino}acetamido]-4-methyl-2-oxoazetidine-1-sulfonic acid, potassium salt]
cephalosporinase
  IC50: 40 nM

## C[C@H]1[C@H](NC(=O)/C(=N/OCc2cc(=O)c(O)cn2O)c2cccn2C)C(=O)N1S(=O)(=O)O [Compound 15]
cephalosporinase
  IC50: 900 nM

## C[C@H]1[C@H](NC(=O)/C(=N/OCC(N)COC(=O)/C(=N\OCc2cc(=O)c(O)cn2O)c2cccs2)c2cccs2)C(=O)N1S(=O)(=O)O (some centres unmarked) [Compound 16]
cephalosporinase
  IC50: 4.5 nM

## C[C@H]1[C@H](NC(=O)/C(=N\OC(C)(C)C(=O)O)c2csc(N)n2)C(=O)N1S(=O)(=O)O [Ref. compd. I, Aztreonam]
cephalosporinase
  IC50: 130 nM
β-lactamase
  β-lactamase inhibitory properties: possesses β-lactamase inhibitory properties

## C[C@H]1[C@H](NC(=O)/C(=N\OCc2cc(=O)c(O)cn2O)c2cccs2)C(=O)N1S(=O)(=O)O [Ref. compd. III]
cephalosporinase
  IC50: 40 nM

## C[C@H]1[C@H](NC(=O)/C(=N/OC(C)(C)C(=O)O)c2csc(N)n2)C(=O)N1S(=O)(=O)O [Ref. compd. II]
cephalosporinase
  IC50: 2000 nM

## CC(C)(O/N=C(\C(=O)N[C@@H]1C(=O)N2C(C(=O)[O-])=C(C[n+]3ccccc3)CS[C@H]12)c1csc(N)n1)C(=O)O [ceftazidime]
E. cloacae 40054
  MIC: > 32 µg/mL
E. cloacae MNH-2
  MIC: > 32 µg/mL
E. cloacae P99
  MIC: > 32 µg/mL
E. aerogenes 41006
  MIC: > 32 µg/mL
E. aerogenes S-95
  MIC: > 32 µg/mL
M. morganii 36014
  MIC: 32 µg/mL
M. morganii 36030
  MIC: > 32 µg/mL
P. aeruginosa 46012 (R)
  MIC: > 32 µg/mL
P. aeruginosa 46017
  MIC: > 32 µg/mL
[1]
  MIC: > 32 µg/mL
P. aeruginosa AU-10
  MIC: 32 µg/mL
P. aeruginosa AU-1
  MIC: > 32 µg/mL
P. aeruginosa AU-5
  MIC: > 32 µg/mL
P. aeruginosa AU-7
  MIC: > 32 µg/mL
P. aeruginosa AU-8
  MIC: > 32 µg/mL
P. aeruginosa CT-122
  MIC: 32 µg/mL
P. aeruginosa CT-137
  MIC: 16 µg/mL
P. aeruginosa CT-144
  MIC: > 32 µg/mL
P. aeruginosa L46004
  MIC: > 32 µg/mL
P. aeruginosa M 1405
  MIC: > 32 µg/mL
P. aeruginosa M 2297
  MIC: > 32 µg/mL
[2]
  MIC: 32 µg/mL
[3]
  MIC: > 32 µg/mL
P. fluorescens sp 5953
  MIC: > 32 µg/mL
P. aeruginosa 46220 DR-2
  MIC: 32 µg/mL
